Test results taken from ChEMBL document CHEMBL4411309, “Discovery of 2-substituted-N-(3-(3,4-dihydroisoquinolin-2(1H)-yl)-2-hydroxypropyl)-1,2,3,4-tetrahydroisoquinoline-6-carboxamide as potent and selective protein arginine methyltransferases 5 inhibitors: Design, synthesis and biological evaluation” (Eur J Med Chem, 2019).

Columns and labels:
MV4-11 [1] = assay: Antiproliferative activity against human MV4-11 cells supplemented with fresh medium containing compound every 4 days measured on day 8 by Celltiter-glo luminescent cell viability assay; type: functional
MV4-11 [2] = assay: Antiproliferative activity against human MV4-11 cells supplemented with fresh medium containing compound every 4 days measured on day 12 by Celltiter-glo luminescent cell viability assay; type: functional
PRMT5/MEP50 complex = PRMT5/MEP50 complex (Homo sapiens, UniProt O14744); assay: Inhibition of recombinant human N-terminal FLAG-tagged PRMT5 (2 to end residues)/human N-terminal His-tagged MEP50 (2 to end residues) expressed in HEK293F cells using H4 peptide as substrate preincubated for 15 mins followed by substrate and [3H]SAM addition and measured after 1 hr by scintillation counting method
[3] = Tmax in Sprague-Dawley rat at 10 mg/kg, po administered via gavage by LC-MS/MS analysis; type: ADME, organism-based; details: in vivo
[4] = Cmax in Sprague-Dawley rat at 10 mg/kg, po administered via gavage by LC-MS/MS analysis; type: ADME, organism-based; set-up: dose 10 mg/kg, route oral; details: in vivo
[5] = AUC in Sprague-Dawley rat at 10 mg/kg, po administered via gavage by LC-MS/MS analysis; type: ADME, organism-based; details: in vivo
[6] = Elimination half life in Sprague-Dawley rat at 10 mg/kg, po administered via gavage by LC-MS/MS analysis; type: ADME, organism-based; details: in vivo, read-out: beta t1/2 (converted)
[7] = target: Protein arginine N-methyltransferase 5 (Homo sapiens) (UniProt O14744); assay: Inhibition of PRMT5 in human MV411 cells assessed as reduction in SmD3 methylation after 4 days by Western blot analysis; type: cell-based
Protein arginine N-methyltransferase 5 (Homo sapiens), sequence (O14744 whole entry): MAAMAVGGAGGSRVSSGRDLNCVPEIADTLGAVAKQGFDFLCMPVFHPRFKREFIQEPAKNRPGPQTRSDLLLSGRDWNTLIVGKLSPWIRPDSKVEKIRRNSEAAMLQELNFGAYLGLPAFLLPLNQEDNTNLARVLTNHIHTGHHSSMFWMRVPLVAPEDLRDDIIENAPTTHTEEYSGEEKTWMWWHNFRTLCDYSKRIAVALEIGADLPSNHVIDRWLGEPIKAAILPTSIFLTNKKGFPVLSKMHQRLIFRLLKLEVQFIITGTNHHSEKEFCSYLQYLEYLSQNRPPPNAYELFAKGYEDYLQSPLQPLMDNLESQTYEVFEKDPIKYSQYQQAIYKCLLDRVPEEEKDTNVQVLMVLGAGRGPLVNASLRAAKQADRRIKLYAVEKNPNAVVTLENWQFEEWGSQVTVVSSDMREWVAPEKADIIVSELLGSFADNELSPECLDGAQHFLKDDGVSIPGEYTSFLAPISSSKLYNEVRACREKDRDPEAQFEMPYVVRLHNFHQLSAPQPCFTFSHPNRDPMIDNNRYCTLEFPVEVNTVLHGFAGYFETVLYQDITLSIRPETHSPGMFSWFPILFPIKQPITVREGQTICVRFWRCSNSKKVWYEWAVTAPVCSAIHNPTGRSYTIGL

PRMT5/MEP50 complex, sequence (O14744 whole entry): as above
PRMT5/MEP50 complex, sequence (Q9BQA1 whole entry, further chain): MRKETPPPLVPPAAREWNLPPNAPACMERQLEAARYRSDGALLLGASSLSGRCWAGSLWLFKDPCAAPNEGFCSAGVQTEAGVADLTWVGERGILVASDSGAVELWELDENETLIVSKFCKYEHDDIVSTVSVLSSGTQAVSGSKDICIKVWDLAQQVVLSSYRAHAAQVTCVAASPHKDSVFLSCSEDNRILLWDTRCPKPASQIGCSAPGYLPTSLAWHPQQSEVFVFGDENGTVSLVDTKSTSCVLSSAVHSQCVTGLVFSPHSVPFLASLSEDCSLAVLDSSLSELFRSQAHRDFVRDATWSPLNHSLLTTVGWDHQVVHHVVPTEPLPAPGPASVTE

SMILES | GI50 (MV4-11 [1]) [nM] | GI50 (MV4-11 [2]) [nM] | IC50 (PRMT5/MEP50 complex) [nM] | also measured
COc1ccc(C(=O)N2CCc3cc(C(=O)NC[C@@H](O)CN4CCc5ccccc5C4)ccc3C2)cc1 | 333 | 213 | 33 | –
O=C(NCC(O)CN1CCc2ccccc2C1)c1cc2c(s1)CCN(C(=O)c1ccco1)C2 (stereo unspecified) | 239 | 160 | 25 | –
CC(c1ccccc1)N1CCc2sc(C(=O)NCC(O)CN3CCc4ccccc4C3)cc2C1 (stereo unspecified) | 436 | 172 | 60 | –
O=C(NCC(O)CN1CCc2ccccc2C1)c1cc2c(s1)CCN(S(=O)(=O)c1ccccc1)C2 (stereo unspecified) | 375 | 209 | 91 | –
O=C(NCC(O)CN1CCc2ccccc2C1)c1cc2c(s1)CCN(c1ccccc1)C2 (stereo unspecified) | – | – | 260 | –
Cc1c(C(=O)NCC(O)CN2CCc3ccccc3C2)sc2c1CN(C(=O)c1ccc(N(C)C)cc1)CC2 (stereo unspecified) | 169 | 101 | 23 | –
O=C(NCC(O)CN1CCc2ccccc2C1)c1cc2c(s1)CCN(C(=O)c1ccccc1F)C2 (stereo unspecified) | 261 | 124 | 45 | –
O=C(NCC(O)CN1CCc2ccccc2C1)c1cc2c(s1)CCN(C(=O)Oc1ccccc1)C2 (stereo unspecified) | – | – | 50 | –
O=C(NCC(O)CN1CCc2ccccc2C1)c1cc2c(s1)CCN(C1CCOCC1)C2 (stereo unspecified) | – | – | 460 | –
CC(=O)c1ccc(C(=O)N2CCc3sc(C(=O)NCC(O)CN4CCc5ccccc5C4)cc3C2)cc1 (stereo unspecified) | 193 | 89 | 19 | –
O=C(NCC(O)CN1CCc2ccccc2C1)c1cc2c(s1)CCN(C(=O)c1ccc(C(F)(F)F)cc1)C2 (stereo unspecified) | 204 | 134 | 49 | –
COc1ccc(C(=O)N2CCc3cc(C(=O)NC[C@H](O)CN4CCc5ccccc5C4)ccc3C2)cc1.Cl | – | – | – | Tmax [3]: 25 min; Cmax [4]: 102 ng/mL; AUC [5]: 94.6 ng·h/mL; half-life [6]: 128 min
CN(C)c1ccc(C(=O)N2CCc3cc(C(=O)NC[C@H](O)CN4CCc5ccccc5C4)ccc3C2)cc1.Cl | – | – | – | Tmax [3]: 20 min; Cmax [4]: 14.3 ng/mL; AUC [5]: 15.8 ng·h/mL; half-life [6]: 56.7 min
O=C(NCC(O)CN1CCc2ccccc2C1)c1cc2c(s1)CCN(C(=O)Cc1ccccc1)C2 (stereo unspecified) | 256 | 147 | 50 | –
CN(C)c1ccc(C(=O)N2Cc3ccc(C(=O)NCC(O)CN4CCc5ccccc5C4)cc3C2)cc1 (stereo unspecified) | 128 | 92 | 17 | –
CN1CCc2sc(C(=O)NCC(O)CN3CCc4ccccc4C3)cc2C1 (stereo unspecified) | – | – | 475 | –
O=C(NCC(O)CN1CCc2ccccc2C1)c1cc2c(s1)CCN(C(=O)CCc1ccccc1)C2 (stereo unspecified) | 304 | 185 | 47 | –
COc1ccc(C(=O)N2CCc3sc(C(=O)NCC(O)CN4CCc5ccccc5C4)cc3C2)cc1 (stereo unspecified) | 216 | 85.6 | 20 | –
COc1ccc(C(=O)N2CCc3cc(C(=O)NC[C@H](O)CN4CCc5ccccc5C4)ccc3C2)cc1 | 37 | 23 | 13 | –
O=C(NC[C@H](O)CN1CCc2ccccc2C1)c1ccc2c(c1)CCN(C(=O)c1ccc(Br)cc1)C2 | – | – | – | inhibition [7]: Dose-dependent effect
O=C(NCC(O)CN1CCc2ccccc2C1)c1cc2c(s1)CCN(C(=O)c1ccc(Br)cc1)C2 (stereo unspecified) | 181 | 66 | 18 | –
CCCN1CCc2sc(C(=O)NCC(O)CN3CCc4ccccc4C3)cc2C1 (stereo unspecified) | – | – | 1100 | –

Further lines, with some results ahead:

GI50 (MV4-11 [1]) [nM] | GI50 (MV4-11 [2]) [nM] | IC50 (PRMT5/MEP50 complex) [nM] | SMILES | also measured
415 | 186 | 19 | CC(C)(C)c1ccc(C(=O)N2CCc3sc(C(=O)NCC(O)CN4CCc5ccccc5C4)cc3C2)cc1 (stereo unspecified) | –
135 | 110 | 32.5 | Cc1ccc(C(=O)N2CCc3sc(C(=O)NCC(O)CN4CCc5ccccc5C4)cc3C2)cc1 (stereo unspecified) | –
253 | 110 | 45 | O=C(NCC(O)CN1CCc2ccccc2C1)c1cc2c(s1)CCN(C(=O)c1ccncc1)C2 (stereo unspecified) | –
322 | 178 | 22 | O=C(NCC(O)CN1CCc2ccccc2C1)c1cc2c(s1)CCN(C(=O)c1ccc3ccccc3c1)C2 (stereo unspecified) | –
213 | 187 | 59 | O=C(NC[C@@H](O)CN1CCc2ccccc2C1)c1ccc2c(c1)CCN(C(=O)c1ccc(Br)cc1)C2 | –
– | – | 1900 | CN1CCc2oc(C(=O)NCC(O)CN3CCc4ccccc4C3)cc2C1 (stereo unspecified) | –
35 | 32 | 23 | COc1ccc(C(=O)N2CCc3cc(C(=O)NCC(O)CN4CCc5ccccc5C4)ccc3C2)cc1 (stereo unspecified) | –
147 | 162 | 23 | O=C(NCC(O)CN1CCc2ccccc2C1)c1cc2c(s1)CCN(C(=O)c1ccc(Cl)cc1)C2 (stereo unspecified) | –
324 | 168 | 37 | O=C(NCC(O)CN1CCc2ccccc2C1)c1cc2c(s1)CCN(C(=O)c1cccs1)C2 (stereo unspecified) | –
– | – | 1200 | CN1CCc2sc(C(=O)NCC(O)CN3CCc4ccccc4C3)nc2C1 (stereo unspecified) | –
258 | 135 | 25 | N#Cc1ccc(C(=O)N2CCc3sc(C(=O)NCC(O)CN4CCc5ccccc5C4)cc3C2)cc1 (stereo unspecified) | –
– | – | 44 | O=C(NCC(O)CN1CCc2ccccc2C1)c1cc2c(s1)CCN(C(=O)c1ccc(N3CCC3)cc1)C2 (stereo unspecified) | –
70 | 36 | 17 | CN(C)c1ccc(C(=O)N2CCc3cc(C(=O)NCC(O)CN4CCc5ccccc5C4)ccc3C2)cc1 (stereo unspecified) | –
– | – | 1900 | CN1CCc2[nH]c(C(=O)NCC(O)CN3CCc4ccccc4C3)cc2C1 (stereo unspecified) | –
197 | 143 | 23 | CN(C)c1ccc(C(=O)N2CCc3sc(C(=O)NCC(O)CN4CCc5ccccc5C4)cc3C2)cc1 (stereo unspecified) | –
201 | 141 | 19 | O=C(NCC(O)CN1CCc2ccccc2C1)c1cc2c(s1)CCN(C(=O)c1ccc([N+](=O)[O-])cc1)C2 (stereo unspecified) | –
– | – | 40 | CN(C)c1ccc(C(=O)N2CCc3ccc(C(=O)NCC(O)CN4CCc5ccccc5C4)cc3C2)cc1 (stereo unspecified) | –
184 | 154 | 39 | O=C(NCC(O)CN1CCc2ccccc2C1)c1cc2c(s1)CCN(C(=O)c1ccccc1)C2 (stereo unspecified) | –
199 | 126 | 30 | O=C(NCC(O)CN1CCc2ccccc2C1)c1cc2c(s1)CCN(C(=O)c1ccc(F)cc1)C2 (stereo unspecified) | –
314 | 166 | 31.5 | O=C(NCC(O)CN1CCc2ccccc2C1)c1cc2c(s1)CCN(C(=O)c1cccc(F)c1)C2 (stereo unspecified) | –
75 | 53 | 11 | CN(C)c1ccc(C(=O)N2CCc3cc(C(=O)NC[C@H](O)CN4CCc5ccccc5C4)ccc3C2)cc1 | –
– | – | 130 | O=C(NCC(O)CN1CCc2ccccc2C1)c1cc2c(s1)CCN(C1CCCCC1)C2 (stereo unspecified) | –
212 | 106 | – | O=C(NC[C@H](O)CN1CCc2ccccc2C1)c1cc(NC2COC2)ncn1 | –
– | – | 240 | O=C(NCC(O)CN1CCc2ccccc2C1)c1cc2c(s1)CCN(Cc1ccccc1)C2 (stereo unspecified) | –
45 | 34 | 11 | O=C(NCC(O)CN1CCc2ccccc2C1)c1ccc2c(c1)CCN(C(=O)c1ccc(Br)cc1)C2 (stereo unspecified) | –
